Assay results reported in patent US5294611A, “Angiotensin II receptor blocking 2,3,6 substituted quinazolinones” (American Cyanamid Company, priority 1993, dated 1994).
Read-outs that look alike come from different tables or passages of the source.

Tested on: Angiotensin II (AII) vasopressor response
Assay: AII Challenge: antagonism of angiotensin II vasopressor response in conscious spontaneously hypertensive rats
Format: in vivo, rat (male okamoto-Aoki SHR)
Details: for inhibition in vivo at 3 mg/kg: Rattus norvegicus, read-out: Inhibition; for Change: single SHR
In short: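 Conscious male SHR (16–20 weeks, ~330 g) cannulated under local procaine, blood pressure recorded via transducer. Angiotensin II (human) 0.05 and 0.1 ug/kg i.v. given before and after test compound dosed i.v., i.p. or orally; response measured as rise in systolic pressure (mmHg).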

[1] = iv, 0.5 h, SHR n=2, 3 mg/kg I.V., AII 0.05 mcg/kg IV, 30 min post dose
[2] = iv, 0.5 h, SHR n=2, 3 mg/kg I.V., AII 0.1 mcg/kg IV, 30 min post dose
[3] = iv, 1 h, SHR n=2, 3 mg/kg I.V., AII 0.05 mcg/kg IV, 60 min post dose
[4] = iv, 1 h, SHR n=2, 3 mg/kg I.V., AII 0.1 mcg/kg IV, 60 min post dose
[5] = iv, 2 h, SHR n=2, 3 mg/kg I.V., AII 0.05 mcg/kg IV, 120 min post dose
[6] = iv, 2 h, SHR n=2, 3 mg/kg I.V., AII 0.1 mcg/kg IV, 120 min post dose
[7] = iv, 3 h, SHR n=2, 3 mg/kg I.V., AII 0.1 mcg/kg IV, 180 min post dose
[8] = iv, 4 h, SHR n=2, 3 mg/kg I.V., AII 0.05 mcg/kg IV, 240 min post dose
[9] = iv, 5 h, SHR n=2, 3 mg/kg I.V., AII 0.05 mcg/kg IV, 300 min post dose
[10] = iv, 5 h, SHR n=2, 3 mg/kg I.V., AII 0.1 mcg/kg IV, 300 min post dose
[11] = iv, […], SHR n=2, 3 mg/kg I.V., AII 0.05 mcg/kg IV, 90 min post dose
[12] = iv, […], SHR n=2, 3 mg/kg I.V., AII 0.1 mcg/kg IV, 90 min post dose
[13] = po, 0.5 h, SHR n=2, 3 mg/kg P.O., AII 0.05 mcg/kg IV, 30 min post dose
[14] = po, 0.5 h, SHR n=2, 3 mg/kg P.O., AII 0.1 mcg/kg IV, 30 min post dose
[15] = po, 1 h, SHR n=2, 3 mg/kg P.O., AII 0.05 mcg/kg IV, 60 min post dose
[16] = po, 1 h, SHR n=2, 3 mg/kg P.O., AII 0.1 mcg/kg IV, 60 min post dose
[17] = po, 2 h, SHR n=2, 3 mg/kg P.O., AII 0.05 mcg/kg IV, 120 min post dose
[18] = po, 2 h, SHR n=2, 3 mg/kg P.O., AII 0.1 mcg/kg IV, 120 min post dose
[19] = po, 3 h, SHR n=2, 3 mg/kg P.O., AII 0.05 mcg/kg IV, 180 min post dose
[20] = po, 3 h, SHR n=2, 3 mg/kg P.O., AII 0.1 mcg/kg IV, 180 min post dose
[21] = po, […], SHR n=2, 3 mg/kg P.O., AII 0.05 mcg/kg IV, 90 min post dose
[22] = po, […], SHR n=2, 3 mg/kg P.O., AII 0.1 mcg/kg IV, 90 min post dose
[23] = SHR n=2, 3 mg/kg I.V., AII 0.05 mcg/kg IV, 30 min post dose
[24] = SHR n=2, 3 mg/kg I.V., AII 0.05 mcg/kg IV, 60 min post dose
[25] = SHR n=2, 3 mg/kg I.V., AII 0.05 mcg/kg IV, 90 min post dose
[26] = SHR n=2, 3 mg/kg I.V., AII 0.05 mcg/kg IV, 120 min post dose
[27] = SHR n=2, 3 mg/kg I.V., AII 0.05 mcg/kg IV, 180 min post dose
[28] = SHR n=2, 3 mg/kg I.V., AII 0.05 mcg/kg IV, 240 min post dose
[29] = SHR n=2, 3 mg/kg I.V., AII 0.05 mcg/kg IV, 300 min post dose
[30] = SHR n=2, 3 mg/kg I.V., AII 0.1 mcg/kg IV, 30 min post dose
[31] = SHR n=2, 3 mg/kg I.V., AII 0.1 mcg/kg IV, 60 min post dose
[32] = SHR n=2, 3 mg/kg I.V., AII 0.1 mcg/kg IV, 90 min post dose
[33] = SHR n=2, 3 mg/kg I.V., AII 0.1 mcg/kg IV, 120 min post dose
[34] = SHR n=2, 3 mg/kg I.V., AII 0.1 mcg/kg IV, 180 min post dose
[35] = SHR n=2, 3 mg/kg I.V., AII 0.1 mcg/kg IV, 240 min post dose
[36] = SHR n=2, 3 mg/kg I.V., AII 0.1 mcg/kg IV, 300 min post dose
[37] = SHR n=2, 3 mg/kg P.O., AII 0.05 mcg/kg IV, 30 min post dose
[38] = SHR n=2, 3 mg/kg P.O., AII 0.05 mcg/kg IV, 60 min post dose
[39] = SHR n=2, 3 mg/kg P.O., AII 0.05 mcg/kg IV, 90 min post dose
[40] = SHR n=2, 3 mg/kg P.O., AII 0.05 mcg/kg IV, 120 min post dose
[41] = SHR n=2, 3 mg/kg P.O., AII 0.05 mcg/kg IV, 180 min post dose
[42] = SHR n=2, 3 mg/kg P.O., AII 0.1 mcg/kg IV, 30 min post dose
[43] = SHR n=2, 3 mg/kg P.O., AII 0.1 mcg/kg IV, 60 min post dose
[44] = SHR n=2, 3 mg/kg P.O., AII 0.1 mcg/kg IV, 90 min post dose
[45] = SHR n=2, 3 mg/kg P.O., AII 0.1 mcg/kg IV, 120 min post dose
[46] = SHR n=2, 3 mg/kg P.O., AII 0.1 mcg/kg IV, 180 min post dose
[47] = 3 mg/kg I.V., AII 0.05 mcg/kg IV, 60 min post dose
[48] = 3 mg/kg I.V., AII 0.05 mcg/kg IV, 90 min post dose
[49] = 3 mg/kg I.V., AII 0.1 mcg/kg IV, 90 min post dose

Structure (SMILES): CCCCc1nc2ccc([C@@H]3[C@@H]4C(=O)OC[C@@H]4ON3Cc3ccccc3)cc2c(=O)n1Cc1ccc(-c2ccccc2-c2nnn[nH]2)cc1 (relative stereo) [Example 56]
- inhibition in vivo at 3 mg/kg [1]: 100%
- inhibition in vivo at 3 mg/kg [2]: 100%
- inhibition in vivo at 3 mg/kg [3]: 100%
- inhibition in vivo at 3 mg/kg [4]: 89%
- inhibition in vivo at 3 mg/kg [5]: 77%
- inhibition in vivo at 3 mg/kg [6]: 78%
- inhibition in vivo at 3 mg/kg (iv, 3 h, SHR n=2, 3 mg/kg I.V., AII 0.05 mcg/kg IV, 180 min post dose): 77%
- inhibition in vivo at 3 mg/kg [7]: 76%
- inhibition in vivo at 3 mg/kg [8]: 72%
- inhibition in vivo at 3 mg/kg (iv, 4 h, SHR n=2, 3 mg/kg I.V., AII 0.1 mcg/kg IV, 240 min post dose): 56%
- inhibition in vivo at 3 mg/kg [9]: 65%
- inhibition in vivo at 3 mg/kg [10]: 67%
- inhibition in vivo at 3 mg/kg [11]: 100%
- inhibition in vivo at 3 mg/kg [12]: 89%
- inhibition in vivo at 3 mg/kg [13]: 31%
- inhibition in vivo at 3 mg/kg [14]: 11%
- inhibition in vivo at 3 mg/kg [15]: 18%
- inhibition in vivo at 3 mg/kg [16]: 19%
- inhibition in vivo at 3 mg/kg [17]: 36%
- inhibition in vivo at 3 mg/kg [18]: 27%
- inhibition in vivo at 3 mg/kg [19]: -9%
- inhibition in vivo at 3 mg/kg [20]: 3%
- inhibition in vivo at 3 mg/kg [21]: 36%
- inhibition in vivo at 3 mg/kg [22]: 19%
- Average Change [23]: 0 mmHg
- Average Change [24]: 0 mmHg
- Average Change [25]: 0 mmHg
- Average Change [26]: 7.5 mmHg
- Average Change [27]: 7.5 mmHg
- Average Change [28]: 9 mmHg
- Average Change [29]: 11.5 mmHg
- Average Change [30]: 0 mmHg
- Average Change [31]: 5 mmHg
- Average Change [32]: 5 mmHg
- Average Change [33]: 10 mmHg
- Average Change [34]: 11 mmHg
- Average Change [35]: 20 mmHg
- Average Change [36]: 15 mmHg
- Average Change [37]: 19 mmHg
- Average Change [38]: 22.5 mmHg
- Average Change [39]: 17.5 mmHg
- Average Change [40]: 17.5 mmHg
- Average Change [41]: 30 mmHg
- Average Change [42]: 27.5 mmHg
- Average Change [43]: 25 mmHg
- Average Change [44]: 25 mmHg
- Average Change [45]: 22.5 mmHg
- Average Change [46]: 30 mmHg
- Change (3 mg/kg I.V., AII 0.05 mcg/kg IV, 30 min post dose): 0 mmHg
- Change [47]: 0 mmHg
- Change [48]: 0 mmHg
- Change (3 mg/kg I.V., AII 0.1 mcg/kg IV, 30 min post dose): 0 mmHg
- Change (3 mg/kg I.V., AII 0.1 mcg/kg IV, 60 min post dose): 5 mmHg
- Change [49]: 5 mmHg
- Change (3 mg/kg I.V., AII 0.1 mcg/kg IV, 120 min post dose): 10 mmHg
- Change (3 mg/kg P.O., AII 0.1 mcg/kg IV, 180 min post dose): 30 mmHg

Structure (SMILES): CCCCc1nc2ccc([C@H]3[C@@H]4C(=O)CC[C@@H]4ON3Cc3ccccc3)cc2c(=O)n1Cc1ccc(-c2ccccc2-c2nnn[nH]2)cc1 (relative stereo) [Example 55]
- inhibition in vivo at 3 mg/kg [1]: 97%
- inhibition in vivo at 3 mg/kg [2]: 95%
- inhibition in vivo at 3 mg/kg [3]: 100%
- inhibition in vivo at 3 mg/kg [4]: 95%
- inhibition in vivo at 3 mg/kg [5]: 97%
- inhibition in vivo at 3 mg/kg [6]: 94%
- inhibition in vivo at 3 mg/kg [7]: 77%
- inhibition in vivo at 3 mg/kg [8]: 89%
- inhibition in vivo at 3 mg/kg (iv, 4 h): 82%
- inhibition in vivo at 3 mg/kg [9]: 61%
- inhibition in vivo at 3 mg/kg [10]: 50%
- inhibition in vivo at 3 mg/kg [11]: 89%
- inhibition in vivo at 3 mg/kg [12]: 91%
- inhibition in vivo at 3 mg/kg [13]: 21%
- inhibition in vivo at 3 mg/kg [14]: 17%
- inhibition in vivo at 3 mg/kg [15]: 7%
- inhibition in vivo at 3 mg/kg [16]: 11%
- inhibition in vivo at 3 mg/kg [17]: 21%
- inhibition in vivo at 3 mg/kg [18]: 39%
- inhibition in vivo at 3 mg/kg [19]: 14%
- inhibition in vivo at 3 mg/kg [20]: 28%
- inhibition in vivo at 3 mg/kg [21]: 14%
- inhibition in vivo at 3 mg/kg [22]: 17%
- Average Change [23]: 1.5 mmHg
- Average Change [24]: 0 mmHg
- Average Change [25]: 5 mmHg
- Average Change [26]: 1.5 mmHg
- Average Change [27]: 2.5 mmHg
- Average Change [28]: 5 mmHg
- Average Change [29]: 17.5 mmHg
- Average Change [30]: 2.5 mmHg
- Average Change [31]: 2.5 mmHg
- Average Change [32]: 5 mmHg
- Average Change [33]: 3.5 mmHg
- Average Change [34]: 12.5 mmHg
- Average Change [35]: 10 mmHg
- Average Change [36]: 27.5 mmHg
- Average Change [37]: 27.5 mmHg
- Average Change [38]: 32.5 mmHg
- Average Change [39]: 30 mmHg
- Average Change [40]: 27.5 mmHg
- Average Change [41]: 30 mmHg
- Average Change [42]: 37.5 mmHg
- Average Change [43]: 40 mmHg
- Average Change [44]: 37.5 mmHg
- Average Change [45]: 27.5 mmHg
- Average Change [46]: 32.5 mmHg
- Change [47]: 0 mmHg
- Change [48]: 5 mmHg
- Change (3 mg/kg I.V., AII 0.05 mcg/kg IV, 240 min post dose): 5 mmHg
- Change [49]: 5 mmHg
- Change (3 mg/kg I.V., AII 0.1 mcg/kg IV, 240 min post dose): 10 mmHg
- Change (3 mg/kg P.O., AII 0.1 mcg/kg IV, 60 min post dose): 40 mmHg
